Values quoted from earlier work, collected in patent EP1239867B1, “METHODS FOR TREATING AND PREVENTING DAMAGE TO MUCOSAL TISSUE” (University of Southern California, priority 1999, dated 2005).
Square brackets hold non-standard residues; d marks the D form. Ends that are not written are not given here. Phe(4-NH2) = Nc1ccc(C[C@H](N)C(=O)O)cc1

Test system: AT2 receptor

Substance	affinity for AT2 than AT1 (times higher) (selectivity AT2 over AT1, Speth and Kim, BBRC 169:997-1006 (1990)) [times]	binding characteristics (in words) (experimental models of Catalioto et al. 1994, Bryson et al. 1992)
Asp-Arg-Val-Tyr-Ile-His-Pro-Phe [AII]	100	
Asp-Arg-Val-Tyr-Ile-Xaa-Pro-Phe (DRVYI[Phe(4-NH2)]PF) [p-aminophenylalanine6-AII]		comparable to AT2 antagonists
